Reference: PubChem BioAssay AID248 (DTP/NCI, 2004)
Toxic doses and inconclusive results are not listed. Cut-off read from the data, not from the text of the source: active = T/C of 150% or more; inactive = T/C below 125%.

Tested on: L1210 leukemia ip in BDF1 mice, survival T/C
Experiment: NCI In Vivo Anticancer Drug Screen. Data for tumor model L1210 Leukemia (intraperitoneal) in B6D2F1 (BDF1) mice
Conditions: endpoint: mean survival time, higher = longer survival
Outline: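 Tumor was transplanted into mice, which were then dosed with test compound or vehicle alone. Survival was recorded for each group, and the treated figure was expressed relative to the control figure.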

[1] = dose: 100.0 mg/kg/injection, schedule: Q04DX003 (ip), vehicle: saline with Tween-80
[2] = dose: 200.0 mg/kg/injection, schedule: Q04DX003 (ip), vehicle: saline with Tween-80
[3] = dose: 400.0 mg/kg/injection, schedule: Q04DX003 (ip), vehicle: saline with Tween-80
[4] = dose: 100.0 mg/kg/injection, schedule: Q04DX002 (ip), vehicle: Klucel (hydroxypropylcellulose) (HPC)
[5] = dose: 200.0 mg/kg/injection, schedule: Q04DX002 (ip), vehicle: Klucel (hydroxypropylcellulose) (HPC)
[6] = dose: 100.0 mg/kg/injection, schedule: Q01DX009 (ip), vehicle: saline with Tween-80
[7] = dose: 200.0 mg/kg/injection, schedule: Q01DX009 (ip), vehicle: saline with Tween-80
[8] = dose: 400.0 mg/kg/injection, schedule: Q01DX009 (ip), vehicle: saline with Tween-80

Measured: T/C

O=C(O)c1cc(CBr)ccc1CBr
inactive: dose: 6.25 mg/kg/injection, schedule: Q01DX009 (ip), vehicle: saline with Tween-80 100 % of control | dose: 6.25 mg/kg/injection, schedule: Q04DX003 (ip), vehicle: saline with Tween-80 93 % of control | dose: 12.5 mg/kg/injection, schedule: Q01DX009 (ip), vehicle: saline with Tween-80 103 % of control | dose: 12.5 mg/kg/injection, schedule: Q04DX003 (ip), vehicle: saline with Tween-80 94 % of control | dose: 25.0 mg/kg/injection, schedule: Q01DX009 (ip), vehicle: saline with Tween-80 95 % of control | dose: 25.0 mg/kg/injection, schedule: Q04DX003 (ip), vehicle: saline with Tween-80 102 % of control

CCOC(=O)C(C)(c1c(C)n(C)c2ccccc12)c1c(C)n(C)c2ccccc12
inactive: dose: 50.0 mg/kg/injection, schedule: Q01DX001 (ip), vehicle: other 91 % of control | dose: 100.0 mg/kg/injection, schedule: Q01DX001 (ip), vehicle: other 91 % of control | dose: 200.0 mg/kg/injection, schedule: Q01DX001 (ip), vehicle: other 91 % of control | dose: 400.0 mg/kg/injection, schedule: Q01DX001 (ip), vehicle: other 91 % of control

Cc1ccc(Cl)cc1NC(=O)c1ccccc1C(=O)O
inactive: dose: 100.0 mg/kg/injection, schedule: Q01DX009 (ip), vehicle: Klucel (hydroxypropylcellulose) (HPC) 102 % of control | dose: 100.0 mg/kg/injection, schedule: Q04DX003 (ip), vehicle: Klucel (hydroxypropylcellulose) (HPC) 102 % of control | dose: 200.0 mg/kg/injection, schedule: Q01DX009 (ip), vehicle: Klucel (hydroxypropylcellulose) (HPC) 97 % of control | dose: 200.0 mg/kg/injection, schedule: Q04DX003 (ip), vehicle: Klucel (hydroxypropylcellulose) (HPC) 101 % of control | dose: 400.0 mg/kg/injection, schedule: Q01DX009 (ip), vehicle: Klucel (hydroxypropylcellulose) (HPC) 96 % of control | dose: 400.0 mg/kg/injection, schedule: Q04DX003 (ip), vehicle: Klucel (hydroxypropylcellulose) (HPC) 102 % of control

Cc1ccc(S(=O)(=O)NC(=O)O/N=C/c2ccccn2)cc1
inactive: [1] 98 % of control | [2] 101 % of control | [3] 104 % of control

CN=C(N)c1ccc(N=C(N)c2ccc(Cl)c(C(N)=Nc3ccc(C(N)=NC)cc3)c2)cc1
inactive: dose: 10.0 mg/kg/injection, schedule: Q01DX Z (ip), vehicle: water 96 % of control | dose: 20.0 mg/kg/injection, schedule: Q01DX Z (ip), vehicle: water 113 % of control

Cc1c(Br)c(C)c(Br)c(OCC(=O)O)c1Br
inactive: [4] 98 % of control | [5] 109 % of control

c1ccc2c(-c3c4ccccc4cc4ccccc34)c3ccccc3cc2c1
inactive: [4] 91 % of control | [5] 105 % of control | dose: 400.0 mg/kg/injection, schedule: Q04DX002 (ip), vehicle: Klucel (hydroxypropylcellulose) (HPC) 91 % of control

CC(=O)NS(=O)(=O)c1ccc(C)cc1
inactive: dose: 100.0 mg/kg/injection, schedule: Q04DX003 (ip), vehicle: acetone 115 % of control | dose: 200.0 mg/kg/injection, schedule: Q04DX003 (ip), vehicle: acetone 108 % of control | dose: 400.0 mg/kg/injection, schedule: Q04DX003 (ip), vehicle: acetone 97 % of control

CC(=O)NCCc1ccc(NCCCc2c(-c3ccccc3)nc(N)[nH]c2=O)cc1
inactive: dose: 100.0 mg/kg/injection, schedule: Q01DX009 (ip), vehicle: saline 97 % of control | dose: 200.0 mg/kg/injection, schedule: Q01DX009 (ip), vehicle: saline 95 % of control | dose: 400.0 mg/kg/injection, schedule: Q01DX009 (ip), vehicle: saline 101 % of control

Cc1cc(CC#N)c(C)c([N+](=O)[O-])c1
inactive: dose: 25.0 mg/kg/injection, schedule: Q04DX003 (ip), vehicle: Klucel (hydroxypropylcellulose) (HPC) 96 % of control | dose: 50.0 mg/kg/injection, schedule: Q04DX003 (ip), vehicle: Klucel (hydroxypropylcellulose) (HPC) 89 % of control

O=C1CSCc2nc3ccccc3n21
inactive: [6] 97 % of control | [1] 106 % of control | [7] 100 % of control | [2] 103 % of control | [8] 100 % of control | [3] 97 % of control

COc1cc(CC(=O)O)c(OC)cc1CC(=O)O
inactive: [6] 101 % of control | [1] 93 % of control | [7] 99 % of control | [2] 96 % of control | [8] 94 % of control | [3] 94 % of control
